Laboratory results published in ChEMBL document CHEMBL1150537, “Synthesis of echiguanine analogs and their ribofuranosyl glycosides that inhibit phosphatidylinositol 4-kinase” (Bioorg Med Chem Lett, 1997).
Converted amounts (≈) assume the structure as drawn.

Experiments:
[1] = biological target: T1, Phosphatidylinositol 4-kinase, PI4K (Homo sapiens, UniProt Q9BTU6+Q8TCG2+Q9UBF8+P42356); assay: Inhibition of Phosphatidylinositol 4-kinase of human epidermoid carcinoma A431 cells; format: cell-based; settings: a-431
[2] = biological target: T1, Phosphatidylinositol 4-kinase, PI4K; assay: Inhibition of Phosphatidylinositol 4-kinase of human epidermoid carcinoma A431 cells (Not prepared); format: cell-based; settings: a-431

SMILES	IC50 [1] [µg/mL]	IC50 [2]
N#CCCNC(=O)c1c[nH]c2nc(N)nc(O)c12	0.45 (≈ 1.83 µM)	–
NC(=O)NCCCNC(=O)c1c[nH]c2nc(N)nc(O)c12	–	Not prepared
N=C(N)NCCCNC(=O)c1c[nH]c2nc(N)nc(O)c12	0.15 (≈ 0.513 µM)	–
NC(=O)CCNC(=O)c1c[nH]c2nc(N)nc(O)c12	0.02 (≈ 0.0757 µM)	–
N=C(S)CCNC(=O)c1c[nH]c2nc(N)nc(O)c12	–	Not prepared
COC(=O)CCNC(=O)c1c[nH]c2nc(N)nc(O)c12	0.3 (≈ 1.07 µM)	–
N=C(N)CCNC(=O)c1cn(C2O[C@H](CO)C(O)[C@H]2O)c2nc(N)nc(O)c12 (single isomer, unassigned)	100 (≈ 253 µM)	–
NCCCNC(=O)c1cn(C2O[C@H](CO)C(O)[C@H]2O)c2nc(N)nc(O)c12 (single isomer, unassigned)	> 100	–
N=C(S)CCNC(=O)c1cn(C2O[C@H](CO)C(O)[C@H]2O)c2nc(N)nc(O)c12 (single isomer, unassigned)	> 100	–
NC(=O)CCNC(=O)c1cn(C2O[C@H](CO)C(O)[C@H]2O)c2nc(N)nc(O)c12 (single isomer, unassigned)	2.4 (≈ 6.06 µM)	–
NC(=O)NCCCNC(=O)c1cn(C2O[C@H](CO)C(O)[C@H]2O)c2nc(N)nc(O)c12 (single isomer, unassigned)	1 (≈ 2.35 µM)	–
N=C(N)NCCCNC(=O)c1cn(C2O[C@H](CO)C(O)[C@H]2O)c2nc(N)nc(O)c12 (single isomer, unassigned)	7.5 (≈ 17.7 µM)	–
COC(=O)CCNC(=O)c1cn(C2O[C@H](CO)C(O)[C@H]2O)c2nc(N)nc(O)c12 (single isomer, unassigned)	25 (≈ 60.8 µM)	–
N#CCCNC(=O)c1cn(C2O[C@H](CO)C(O)[C@H]2O)c2nc(N)nc(O)c12 (single isomer, unassigned)	> 100	–
NCCCNC(=O)c1c[nH]c2nc(N)nc(O)c12 [ECHIGUANINE B]	0.18 (≈ 0.719 µM)	–
